Data from patent US20260283941A1, “PHARMACEUTICAL COMPOSITION CONTAINING PYRROLE GASTRIC ACID SECRETION INHIBITOR AND PREPARATION METHOD THEREFOR” (JIANGSU CAREPHAR PHARMACEUTICAL CO., LTD., priority 2022, published 2026).

Test: Stability investigation: properties (appearance) of the injection solutions
Format: physicochemical
Conditions: pH of the injectable composition 2.0
Description: The compound represented by formula II and the stabilizer were weighed and dissolved in 90% of a prescribed amount of water for injection. The pH of the solution was adjusted with hydrochloric acid, and then water for injection was added to the full amount. The solution was filled up to 2 mL, and was flushed with nitrogen before and after filling and sealing. The solution was sterilized at 121° C. for 15 minutes to obtain the composition. […] The changes of impurities were detected by high-performance liquid chromatography (HPLC). The analytical method used to detect the impurity content was as follows:
The compound represented by formula II and disodium edetate or calcium disodium edetate were weighed and dissolved in 90% of a prescribed amount of water for injection. The pH of the solution was adjusted with hydrochloric acid, and then water for injection was added to the full amount. The solution was filled in a 2 mL ampoule, and was flushed with nitrogen before and after filling and sealing. The sample was sterilized at 121° C. for 15 minutes to obtain the composition. The compositions were placed under conditions including a high temperature of 60° C. and illumination at 5000 Lx for stability investigation, to determine the properties of the injection solutions and the changes of impurities.

- Solubility (in words): reduced solubility
Compound: CNCc1cc(-c2ccccc2F)n(S(=O)(=O)c2cccc(OCCCOC)c2)c1.Cl [compound represented by formula II]
